Measured values reported in article PMC12135181, “The mechanism of lineage-specific tRNA recognition by bacterial tryptophanyl-tRNA synthetase and its implications for inhibitor discovery” (Nucleic Acids Research, 2025).
Like-named read-outs stand apart in the source and are kept apart here.

What was measured:
EcTrpRS [1] = molecular target: T1, EcTrpRS (Escherichia coli, UniProt P00954); test: Pyrophosphate (PPi) production assay; assay type: biochemical; conditions: 10 μM compound, average of three; for inhibition at 10 µM: read-out: Inhibitory rate of PPi production activity of EcTrpRS
T1 construct: hexahistidine tag (C); made in house; host or cells: Escherichia coli BL21(DE3)
Procedure: The inhibitory effects of various compounds of EcTrpRS were evaluated using a pyrophosphate (PPi) production assay. EcTrpRS was incubated with 10 μM (in 0.1% DMSO) of each compound for 10 min at room temperature. […] The mixture was incubated at 26°C for 45 min, after which 40 μl of malachite green reagent was added to terminate the reaction and develop color. Following an additional incubation of 10 min, the absorbance (A) was measured at 640 nm using a Synergy H1 microplate reader (BioTek). The absorbance of the reaction without adding a compound was designated as A1, the absorbance of the reaction without adding EcTrpRS was A0, and the absorbance of the reaction with the addition of a compound was AC. The inhibitory rates of compounds on enzyme activity were calculated as (A1 − AC)/(A1 − A0) × 100%. Each reaction was performed in triplicate.

EcTrpRS [2] = molecular target: T1, EcTrpRS; test: Isothermal titration calorimetry (ITC) to EcTrpRS; assay type: binding
Procedure: (§1) The binding affinities of various compounds to EcTprRS were measured using a MicroCal VP-ITC microcalorimeter (MicroCal). Compounds at a concentration of 200 μM were titrated into 20 μM of EcTrpRS in PBS (phosphate buffered saline) buffer (137 mM NaCl, 2.7 mM KCl, 8 mM Na2HPO4, and 2 mM KH2PO4). The titration assays were conducted at 26°C, beginning with an initial injection of 0.4 μl, followed by 18 injections of 2 μl each, with an interval of 120 s between each injection. The dissociation constants (Kd) were calculated by fitting the calorimetric data to a one-site binding model using MicroCal PEAQ-ITC analysis software, with the reported errors in Kd values representing the curve fitting errors. All isothermal titration calorimetry (ITC) experiments were repeated at least twice, and the titrations of compounds to HcTrpRS were also performed for comparison.

EcTrpRS [3] = molecular target: T1, EcTrpRS; assay type: binding
HcTrpRS = molecular target: T2, HcTrpRS (Homo sapiens, UniProt P23381); test: Isothermal titration calorimetry (ITC) to HcTrpRS; assay type: binding
T2 construct: made in house
T2 sequence (P23381 1-471): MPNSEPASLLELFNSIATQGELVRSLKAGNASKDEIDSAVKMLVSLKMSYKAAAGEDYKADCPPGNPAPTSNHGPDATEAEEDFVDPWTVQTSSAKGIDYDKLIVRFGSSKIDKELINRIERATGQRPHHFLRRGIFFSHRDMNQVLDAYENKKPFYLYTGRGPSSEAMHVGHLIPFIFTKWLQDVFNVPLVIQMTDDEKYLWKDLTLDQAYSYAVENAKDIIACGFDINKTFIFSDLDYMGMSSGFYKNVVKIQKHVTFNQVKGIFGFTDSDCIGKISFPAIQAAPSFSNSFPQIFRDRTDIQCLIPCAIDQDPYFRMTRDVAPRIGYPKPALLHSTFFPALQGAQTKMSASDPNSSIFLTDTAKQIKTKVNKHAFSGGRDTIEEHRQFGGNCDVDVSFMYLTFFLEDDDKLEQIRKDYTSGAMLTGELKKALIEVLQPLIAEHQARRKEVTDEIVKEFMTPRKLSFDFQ
Procedure: as §1

[4] = no tRNA, no ATP, 26°C, PBS, read-out: Kd for binding to EcTrpRS (ITC)

Row | SMILES | Inhibitory rate of PPi production activity of EcTrpRS (EcTrpRS [1]; 10 µM) | inhibition at 10 µM (EcTrpRS [1]) [%] | Change of ΔTm of EcTrpRS with compound after addition of tRNA^Trp (EcTrpRS [3]) | further results
1 | Nc1ncnc2n[nH]c(-c3ccc(Oc4ccccc4)cc3)c12 [IBT4A] | nor did they exhibit considerable inhibitory rates |  |  | Inhibitory rate of PPi production activity of EcTrpRS (EcTrpRS [1]; listed as 8, 10 µM): < 5%
2 | Nc1ncnc2c1c(-c1ccc(Oc3ccccc3)cc1)nn2[C@@H]1CCCNC1 [IBT6A] | nor did they exhibit considerable inhibitory rates |  |  | Inhibitory rate of PPi production activity of EcTrpRS (EcTrpRS [1]; listed as 6, 10 µM): 9%
3 | N[C@@H](Cc1c[nH]c2ccccc12)C(=O)O [L-Trp, tryptophan] |  |  |  | Binding to EcTrpRS (ITC) (EcTrpRS [2]; in the presence of 200 μM N-piperidine ibrutinib): no binding; Kd (EcTrpRS [2]; [4]): 40.2 ± 4.8 µM
4 | C=CC(=O)N1CCC[C@H](n2c(=O)n(-c3ccc(Oc4ccccc4)cc3)c3c(N)ncnc32)C1 [ONO-4059 analogue] |  | 38 | reduced | 
5 | Nc1ncnc2c1c(-c1ccc(Oc3ccccc3)cc1)nn2C1CCCC1 [PCI-29732] | nor did they exhibit considerable inhibitory rates |  |  | Inhibitory rate of PPi production activity of EcTrpRS (EcTrpRS [1]; listed as 7, 10 µM): < 5%
6 | C=CC(=O)N1CCC[C@@H](n2nc(-c3ccc(Oc4ccccc4)cc3)c3c(N)ncnc32)C1 [ibrutinib] |  | 12 |  | Inhibitory rate of PPi production activity of EcTrpRS (EcTrpRS [1]): nor did they exhibit considerable inhibitory rates; ΔTm of EcTrpRS (EcTrpRS [3]): did not produce significant changes
7 | CN=C1NC(=O)[C@H]([C@H](C)c2c[nH]c3ccccc23)O1 [indolmycin] |  | 93 |  | Kd (EcTrpRS [2]; in the absence of ATP, read-out: Kd (binding affinity) to EcTrpRS (ITC)): 0.804 ± 0.054 µM; Kd (EcTrpRS [2]; in the presence of 1 mM ATP, read-out: Kd (binding affinity) to EcTrpRS (ITC)): 0.503 ± 0.031 µM
8 | CC#CC(=O)N1CC[C@@H](n2c(=O)n(-c3ccc(Oc4ccccc4)cc3)c3c(N)ncnc32)C1 [tirabrutinib] |  | 50 | reduced | Binding affinity for HcTrpRS (ITC) (HcTrpRS): no binding affinities; Kd (EcTrpRS [2]; [4]): 4.8 ± 0.2 µM
9 | C=CC(=O)N1CCC[C@@H](n2c(=O)n(-c3ccc(Oc4ccccc4)cc3)c3c(N)nccc32)C1 [tolebrutinib] |  | 19 | reduced | 
